Experimental data: patent publication US7265124B2, “Cristalline and amorphous form of a triazolo (4,5-D) pyridimine compound” (AstraZeneca AB, priority 2000, dated 2007)

Experiments:
Details in all cases: qualitative statement, no test described
[1] = bioavailability (stated in words only); assay type: in vivo
[2] = metabolic stability (stated in words only); assay type: in vitro ADME
[3] = target: P2T (P2YADP or P2TAC) receptor (Homo sapiens, UniProt Q9H244); assay: P2T receptor antagonism (potency stated in words only)
P2T (P2YADP or P2TAC) receptor, sequence (Q9H244 whole entry): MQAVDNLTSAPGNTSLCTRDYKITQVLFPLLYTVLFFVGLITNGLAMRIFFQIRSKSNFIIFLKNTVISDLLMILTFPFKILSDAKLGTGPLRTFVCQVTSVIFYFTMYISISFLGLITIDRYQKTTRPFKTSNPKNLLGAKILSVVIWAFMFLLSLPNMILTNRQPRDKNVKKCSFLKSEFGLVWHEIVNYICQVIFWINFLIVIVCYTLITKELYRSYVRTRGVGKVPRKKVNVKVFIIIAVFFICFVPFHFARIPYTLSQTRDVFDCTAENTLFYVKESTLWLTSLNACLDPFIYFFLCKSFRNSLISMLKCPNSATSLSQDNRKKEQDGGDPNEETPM

- bioavailability [1]: surprisingly high
- metabolic stability [2]: surprisingly high
- potency as a P2T (P2YADP or P2TAC) antagonist [3]: high potency
SMILES: CCCSc1nc(N[C@@H]2C[C@H]2c2ccc(F)c(F)c2)c2nnn([C@@H]3C[C@H](OCCO)[C@@H](O)[C@H]3O)c2n1 (relative stereo) [compound of formula (I), {1S-[1α, 2α, 3β(1S*,2R*),5β]}-3-(7-{[2-3,4-difluorophenyl)cyclopropyl]amino}-5-(propylthio)-3H-1,2,3-triazolo[4,5-d]pyrimidin-3-yl)-5-(2-hydroxyethoxy)cyclopentane-1,2-diol]
